experiment: Inverse agonist activity at RORgammat in mouse CD4 positive T cells assessed as inhibition of Th17 cell differentiation by measuring IL-17 release after 4 days by cellular staining based flow cytometry

| SMILES | IC50 [nM] |
| --- | --- |
| N#Cc1cccc(C(=O)Nc2cccc3c2CCC3N2CC3CCC(C2)N3C(=O)C2CCCC2)c1 (centres undefined) | 385 |
| N#Cc1cccc(C(=O)Nc2ccc3c(c2)C(N2CCN(C(=O)C4CCCC4)CC2)CC3)c1 (centres undefined) | 2660 |
| N#Cc1cccc(C(=O)Nc2ccc3c(c2)C(N2CC4CCC(C2)N4C(=O)C2CCCC2)CC3)c1 (centres undefined) | 423 |
| N#Cc1cccc(C(=O)Nc2cccc3c2CCC3N2CCN(C(=O)C3CCCC3)CC2)c1 (centres undefined) | 1780 |

From BindingDB's records for doi:10.1016/j.ejmech.2019.01.082 (Fudan University, 2019)
